Key:
[1] = Cytotoxicity against human HepG2 cells assessed as reduction in cell viability incubated for 24 hrs by MTS assay; type: toxicity, cell-based; conditions: read-out: LC50
Hepatitis B virus [2] = assay: Antiviral activity against Hepatitis B virus infected in human HepG2 cells expressing NTCP assessed as inhibition of viral entry by measuring intracellular HBV DNA preincubated with compound for 2 hrs followed by viral infection and measured after 3 hrs by qPCR analysis; type: functional, organism-based
CYP2C9 = CYP2C9 (Homo sapiens, UniProt P11712); assay: Inhibition of human CYP2C9 at 10 uM preincubated for 10 mins followed by NADPH addition and measured after 20 mins by luciferin reagent based luminescence analysis; type: ADME; conditions: time 30 min
Sequence of CYP2C9 (P11712 whole entry): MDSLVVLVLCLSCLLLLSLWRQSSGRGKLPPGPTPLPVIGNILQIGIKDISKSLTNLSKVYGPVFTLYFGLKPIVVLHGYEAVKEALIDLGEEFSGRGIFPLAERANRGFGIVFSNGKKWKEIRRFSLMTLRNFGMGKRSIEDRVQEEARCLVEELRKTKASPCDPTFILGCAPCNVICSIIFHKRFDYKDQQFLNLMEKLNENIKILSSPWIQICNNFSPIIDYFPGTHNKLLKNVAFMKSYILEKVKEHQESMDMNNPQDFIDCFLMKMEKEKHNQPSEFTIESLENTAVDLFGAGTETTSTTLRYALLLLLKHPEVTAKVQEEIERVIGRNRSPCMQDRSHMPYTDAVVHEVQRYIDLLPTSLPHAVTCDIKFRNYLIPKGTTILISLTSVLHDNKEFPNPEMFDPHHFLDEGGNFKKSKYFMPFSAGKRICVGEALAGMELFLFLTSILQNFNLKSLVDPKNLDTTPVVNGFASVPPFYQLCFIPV

CYP3A4 = CYP3A4 (Homo sapiens, UniProt P08684); assay: Inhibition of human CYP3A4 at 10 uM preincubated for 10 mins followed by NADPH addition and measured after 20 mins by luciferin reagent based luminescence analysis; type: ADME; conditions: time 30 min
Sequence of CYP3A4 (P08684 whole entry): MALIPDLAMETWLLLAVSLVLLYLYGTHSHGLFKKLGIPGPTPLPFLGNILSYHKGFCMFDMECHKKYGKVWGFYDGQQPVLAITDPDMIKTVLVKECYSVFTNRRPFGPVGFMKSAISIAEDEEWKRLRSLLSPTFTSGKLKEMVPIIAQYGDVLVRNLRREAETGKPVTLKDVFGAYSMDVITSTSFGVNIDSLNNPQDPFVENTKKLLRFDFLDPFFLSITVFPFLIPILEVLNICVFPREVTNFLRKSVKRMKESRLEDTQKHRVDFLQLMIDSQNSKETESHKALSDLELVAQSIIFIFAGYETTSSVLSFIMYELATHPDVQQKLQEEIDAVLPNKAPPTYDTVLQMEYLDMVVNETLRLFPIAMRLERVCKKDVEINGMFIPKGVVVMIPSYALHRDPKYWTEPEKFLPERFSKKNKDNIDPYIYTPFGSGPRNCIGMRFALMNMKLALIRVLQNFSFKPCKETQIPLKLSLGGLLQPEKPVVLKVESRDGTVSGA

Hepatitis B virus [3] = assay: Antiviral activity against Hepatitis B virus infected in human HepG2 cells expressing NTCP assessed as inhibition of viral entry by measuring intracellular HBV DNA at 1 uM preincubated with compound for 2 hrs followed by viral infection and measured after 3 hrs by qPCR analysis relative to control; type: functional; conditions: time 5 hrs
CYP2C19 = CYP2C19 (Homo sapiens, UniProt P33261); assay: Inhibition of human CYP2C19 at 10 uM preincubated for 10 mins followed by NADPH addition and measured after 20 mins by luciferin reagent based luminescence analysis; type: ADME; conditions: time 30 min
Sequence of CYP2C19 (P33261 whole entry): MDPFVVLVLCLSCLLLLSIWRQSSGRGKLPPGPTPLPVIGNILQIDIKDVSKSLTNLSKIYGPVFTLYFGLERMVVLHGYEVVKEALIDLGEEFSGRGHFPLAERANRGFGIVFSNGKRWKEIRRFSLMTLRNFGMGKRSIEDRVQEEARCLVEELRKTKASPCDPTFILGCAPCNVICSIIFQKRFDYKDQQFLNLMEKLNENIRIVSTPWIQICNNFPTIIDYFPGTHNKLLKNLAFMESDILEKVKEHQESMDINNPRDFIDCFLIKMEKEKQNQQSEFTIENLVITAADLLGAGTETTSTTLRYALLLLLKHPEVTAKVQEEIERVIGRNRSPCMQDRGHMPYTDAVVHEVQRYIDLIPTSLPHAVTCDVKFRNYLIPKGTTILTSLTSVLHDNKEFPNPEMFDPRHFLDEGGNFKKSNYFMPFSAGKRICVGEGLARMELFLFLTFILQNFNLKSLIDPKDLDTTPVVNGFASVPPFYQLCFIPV

CYP1A2 = target: T1, CYP1A2 (Homo sapiens, UniProt P05177); assay: Inhibition of human CYP1A2 at 10 uM preincubated for 10 mins followed by NADPH addition and measured after 20 mins by luciferin reagent based luminescence analysis; type: ADME; conditions: time 30 min
T1 sequence (P05177 whole entry): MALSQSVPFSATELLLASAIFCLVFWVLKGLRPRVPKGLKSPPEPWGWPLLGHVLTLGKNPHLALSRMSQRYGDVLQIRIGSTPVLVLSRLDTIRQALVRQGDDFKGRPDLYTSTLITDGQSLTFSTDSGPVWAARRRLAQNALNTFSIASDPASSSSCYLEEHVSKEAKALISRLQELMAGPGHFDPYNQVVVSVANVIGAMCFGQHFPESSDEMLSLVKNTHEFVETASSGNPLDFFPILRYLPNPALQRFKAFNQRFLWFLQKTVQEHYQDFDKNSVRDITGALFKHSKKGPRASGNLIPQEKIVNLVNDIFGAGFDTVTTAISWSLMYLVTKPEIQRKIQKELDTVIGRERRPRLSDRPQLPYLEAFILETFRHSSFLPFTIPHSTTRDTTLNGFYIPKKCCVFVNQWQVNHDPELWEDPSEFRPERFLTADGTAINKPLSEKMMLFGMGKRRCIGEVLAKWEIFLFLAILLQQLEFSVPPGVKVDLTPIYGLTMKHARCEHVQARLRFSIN

hERG (KCNH2) [4] = target: T2, hERG (KCNH2) (Homo sapiens, UniProt Q12809); assay: Inhibition of hERG incubated for 2 hrs by fluorescence polarization based assay; type: toxicity
T2 sequence (Q12809 whole entry): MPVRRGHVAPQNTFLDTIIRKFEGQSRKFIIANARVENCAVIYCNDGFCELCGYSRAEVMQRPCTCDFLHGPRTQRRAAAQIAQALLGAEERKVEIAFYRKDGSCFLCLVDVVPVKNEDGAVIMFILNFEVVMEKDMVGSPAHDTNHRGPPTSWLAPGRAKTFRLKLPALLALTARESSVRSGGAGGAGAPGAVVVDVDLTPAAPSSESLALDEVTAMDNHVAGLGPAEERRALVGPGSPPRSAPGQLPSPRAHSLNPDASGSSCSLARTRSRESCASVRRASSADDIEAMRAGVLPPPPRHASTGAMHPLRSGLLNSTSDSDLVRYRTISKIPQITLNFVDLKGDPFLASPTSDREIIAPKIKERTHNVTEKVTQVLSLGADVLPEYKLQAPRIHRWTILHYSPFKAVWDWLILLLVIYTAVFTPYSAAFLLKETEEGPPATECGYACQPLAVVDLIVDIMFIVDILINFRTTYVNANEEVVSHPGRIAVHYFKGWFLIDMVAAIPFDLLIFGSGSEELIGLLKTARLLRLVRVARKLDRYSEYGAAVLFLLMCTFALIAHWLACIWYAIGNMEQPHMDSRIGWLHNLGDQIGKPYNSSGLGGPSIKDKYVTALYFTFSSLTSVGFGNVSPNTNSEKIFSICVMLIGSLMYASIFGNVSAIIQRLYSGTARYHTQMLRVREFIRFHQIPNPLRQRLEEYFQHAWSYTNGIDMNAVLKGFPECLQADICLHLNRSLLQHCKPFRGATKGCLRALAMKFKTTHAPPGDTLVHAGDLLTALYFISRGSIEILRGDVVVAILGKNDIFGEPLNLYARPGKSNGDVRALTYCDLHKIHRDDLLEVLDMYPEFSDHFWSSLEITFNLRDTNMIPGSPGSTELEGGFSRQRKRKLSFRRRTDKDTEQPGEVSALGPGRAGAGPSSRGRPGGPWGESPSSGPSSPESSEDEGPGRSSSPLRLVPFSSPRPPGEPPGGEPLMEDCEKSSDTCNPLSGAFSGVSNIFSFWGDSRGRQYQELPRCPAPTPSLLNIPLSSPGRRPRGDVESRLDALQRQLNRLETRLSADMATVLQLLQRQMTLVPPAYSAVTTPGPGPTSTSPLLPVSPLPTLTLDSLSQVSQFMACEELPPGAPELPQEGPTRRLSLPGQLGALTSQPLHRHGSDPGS

CYP2D6 = CYP2D6 (Homo sapiens, UniProt P10635); assay: Inhibition of human CYP2D6 at 10 uM preincubated for 10 mins followed by NADPH addition and measured after 20 mins by luciferin reagent based luminescence analysis; type: ADME; conditions: time 30 min
Sequence of CYP2D6 (P10635 whole entry): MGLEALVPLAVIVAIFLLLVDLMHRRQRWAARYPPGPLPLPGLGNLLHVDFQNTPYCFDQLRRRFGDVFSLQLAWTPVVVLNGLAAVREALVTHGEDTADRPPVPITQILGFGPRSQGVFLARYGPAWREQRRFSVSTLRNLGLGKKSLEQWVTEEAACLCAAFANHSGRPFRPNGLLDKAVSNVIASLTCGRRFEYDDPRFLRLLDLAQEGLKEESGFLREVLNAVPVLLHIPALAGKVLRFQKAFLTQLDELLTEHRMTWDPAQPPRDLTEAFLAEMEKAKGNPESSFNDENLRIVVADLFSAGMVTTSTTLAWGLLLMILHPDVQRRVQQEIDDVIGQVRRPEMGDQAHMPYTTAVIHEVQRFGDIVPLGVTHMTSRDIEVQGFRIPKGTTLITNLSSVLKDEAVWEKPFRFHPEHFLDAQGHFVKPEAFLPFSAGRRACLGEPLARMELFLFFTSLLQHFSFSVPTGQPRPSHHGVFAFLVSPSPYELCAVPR

hERG (KCNH2) [5] = target: T2, hERG (KCNH2); assay: in vitro
Description: Inhibition of hERG at 10 uM incubated for 2 hrs by fluorescence polarization based assay relative to control

CCC[C@@H]1NC(=O)[C@H](CC(C)C)N(C)C(=O)[C@H](CC(C)C)N(C)C(=O)CN(CCO)C(=O)[C@H](CC(C)C)N(C)C(=O)[C@@H](C)NC(=O)[C@@H](CCC(N)=O)NC(=O)[C@H](CC(C)C)N(C)C(=O)[C@H](C(C)C)NC(=O)[C@H](CC(C)C)N(C)C(=O)CN(C)C1=O
CC50 at 24 h [1]: > 200 µM
IC50 (Hepatitis B virus [2]): 0.36 µM
inhibition at 20 min, 10 µM (CYP2C9): 14.8%
inhibition at 20 min, 10 µM (CYP3A4): 35.5%
inhibition at 1 µM (Hepatitis B virus [3]): 78%
inhibition at 20 min, 10 µM (CYP2C19): 29.4%
inhibition at 20 min, 10 µM (CYP1A2): 8.4%
EC50 at 2 h (hERG (KCNH2) [4]): > 10 µM
inhibition at 20 min, 10 µM (CYP2D6): 35.1%
inhibition at 2 h, 10 µM (hERG (KCNH2) [5]): 19.1%

— ChEMBL document CHEMBL5126594, “Entry inhibition of hepatitis B virus using cyclosporin O derivatives with peptoid side chain incorporation” (Bioorg Med Chem, 2022)
